How the values were obtained:
[1] = system: bedstraw; experiment: Test B pre/postemergence bedstraw; type: in vivo, Galium aparine; settings: Preemergence
In short: (§1)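 Test chemicals in a non-phytotoxic solvent mixture with surfactant were sprayed preemergence onto planted seeds and postemergence onto plants 2 to 18 cm tall (1- to 4-leaf stage). After twelve to sixteen days in a greenhouse, injury was visually rated against untreated controls from 0 (no effect) to 10 (complete control).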

[2] = system: blackgrass; experiment: Test B pre/postemergence blackgrass; type: in vivo, Alopecurus myosuroides; settings: Preemergence
In short: as §1

[3] = system: surinam grass; experiment: Test B pre/postemergence surinam grass; type: in vivo, Brachiaria decumbens; settings: Preemergence
In short: as §1

[4] = system: cocklebur; experiment: Test B pre/postemergence cocklebur; type: in vivo, Xanthium strumarium; settings: Preemergence
In short: as §1

[5] = system: corn; experiment: Test B pre/postemergence corn; type: in vivo, Zea mays; settings: Preemergence
In short: as §1

[6] = system: crabgrass; experiment: Test B pre/postemergence crabgrass; type: in vivo, Digitaria sanguinalis; settings: Preemergence
In short: as §1

[7] = system: giant foxtail; experiment: Test B pre/postemergence giant foxtail; type: in vivo, Setaria faberii; settings: Preemergence, scale of 0 to 10 where 0 is no effect and 10 is complete control
In short: as §1

[8] = system: morningglory; experiment: Test B pre/postemergence morningglory; type: in vivo, Ipomoea hederacea; settings: Preemergence, scale of 0 to 10 where 0 is no effect and 10 is complete control
In short: as §1

[9] = system: pigweed; experiment: Test B pre/postemergence pigweed; type: in vivo, Amaranthus retroflexus; settings: Preemergence, scale of 0 to 10 where 0 is no effect and 10 is complete control
In short: as §1

[10] = system: rape; experiment: Test B pre/postemergence rape; type: in vivo, Brassica napus; settings: Preemergence, scale of 0 to 10 where 0 is no effect and 10 is complete control
In short: as §1

[11] = system: soybean; experiment: Test B pre/postemergence soybean; type: in vivo, Glycine max; settings: Preemergence, scale of 0 to 10 where 0 is no effect and 10 is complete control
In short: as §1

[12] = system: sugar beet; experiment: Test B pre/postemergence sugar beet; type: in vivo, Beta vulgaris; settings: Preemergence, scale of 0 to 10 where 0 is no effect and 10 is complete control
In short: as §1

[13] = system: velvetleaf; experiment: Test B pre/postemergence velvetleaf; type: in vivo, Abutilon theophrasti; settings: Preemergence, scale of 0 to 10 where 0 is no effect and 10 is complete control
In short: as §1

[14] = system: wheat; experiment: Test B pre/postemergence wheat; type: in vivo, Triticum aestivum; settings: Preemergence, scale of 0 to 10 where 0 is no effect and 10 is complete control
In short: as §1

[15] = system: wild oat; experiment: Test B pre/postemergence wild oat; type: in vivo, Avena fatua; settings: Preemergence, scale of 0 to 10 where 0 is no effect and 10 is complete control
In short: as §1

[16] = system: purple nutsedge; experiment: Test B pre/postemergence purple nutsedge; type: in vivo, Cyperus rotundus; settings: Preemergence, Rate 62 g/ha; scale of 0 to 10 where 0 is no effect and 10 is complete control
In short: as §1

[17] = system: smallflower flatsedge; experiment: Test B flood test smallflower flatsedge; type: in vivo, Cyperus difformis
Protocol: (§2) At the same time, these crop and weed species were also treated with postemergence applications of test chemicals formulated in the same manner. Plants ranged in height from 2 to 18 cm (1- to 4-leaf stage) for postemergence treatments. Plant species in the flood test consisted of rice (Oryza sativa), smallflower flatsedge (Cyperus difformis), duck salad (Heteranthera limosa) and bamyardgrass (Echinochloa crus-galli) grown to the 2-leaf stage for testing. Treated plants and controls were maintained in a greenhouse for twelve to sixteen days, after which all species were compared to controls and visually evaluated. Plant response ratings, summarized in Table B, are based on a scale of 0 to 10 where 0 is no effect and 10 is complete control. A dash (−) response means no test result.

[18] = system: duck salad; experiment: Test B flood test duck salad; type: in vivo, Heteranthera limosa
Protocol: as §2

[19] = system: bamyardgrass; experiment: Test B flood test barnyardgrass; type: in vivo, Echinochloa crus-galli
Protocol: as §2

[20] = Rate 62 g/ha, scale of 0 to 10 where 0 is no effect and 10 is complete control
[21] = Rate 125 g/ha, scale of 0 to 10 where 0 is no effect and 10 is complete control
[22] = Rate 250 g/ha, scale 0 to 10 (0 no effect, 10 complete control)
[23] = Rate 500 g/ha, scale of 0 to 10 where 0 is no effect and 10 is complete control
[24] = Rate 62 g/ha, flood test species, Pre-emergence, visual evaluation after twelve to sixteen days
[25] = Rate 125 g/ha, under heading Pre-emergence, flood test species, visual evaluation after twelve to sixteen days
[26] = Rate 250 g/ha, Pre-emergence (flood test species), scale 0 to 10, 0 is no effect, 10 is complete control
[27] = Rate 500 g/ha, Pre-emergence section of Table B, 0 to 10 scale (0 no effect, 10 complete control)

SMILES: CC(C)N(C(=O)n1oc(=O)n(C(C)C2CCC2)c1=O)c1ccc(Cl)cc1 (centres unmarked) [Compound 701]
- Bedstraw plant response rating [1, 20]: 0
- Plant response rating, Bedstraw [1, 21]: 0
- Plant response rating, Bedstraw [1, 22]: 0
- Plant response rating, Bedstraw [1, 23]: 0
- Blackgrass plant response rating [2, 20]: 0
- Plant response rating, Blackgrass [2, 21]: 2
- Plant response rating, Blackgrass [2, 22]: 2
- Plant response rating, Blackgrass [2, 23]: 6
- B. signalgrass plant response rating [3, 20]: 0
- Plant response rating, B. signalgrass [3, 21]: 0
- Plant response rating, B. signalgrass [3, 22]: 0
- Plant response rating, B. signalgrass [3, 23]: 0
- Cocklebur plant response rating [4, 20]: 0
- Plant response rating, Cocklebur [4, 21]: 0
- Plant response rating, Cocklebur [4, 22]: 0
- Plant response rating, Cocklebur [4, 23]: 0
- Corn plant response rating [5, 20]: 0
- Plant response rating, Corn [5, 21]: 0
- Plant response rating, Corn [5, 22]: 0
- Crabgrass plant response rating [6, 20]: 0
- Plant response rating, Crabgrass [6, 21]: 10
- Plant response rating, Crabgrass [6, 22]: 10
- Giant foxtail plant response rating ([7]; Rate 62 g/ha): 6
- Plant response rating, Giant foxtail ([7]; Rate 125 g/ha): 10
- Morningglory plant response rating ([8]; Rate 62 g/ha): 0
- Plant response rating, Morningglory ([8]; Rate 125 g/ha): 0
- Redroot pigweed plant response rating ([9]; Rate 62 g/ha): 0
- Plant response rating, Redroot pigweed ([9]; Rate 125 g/ha): 0
- Rape plant response rating ([10]; Rate 62 g/ha): 0
- Plant response rating, Rape ([10]; Rate 125 g/ha): 0
- Soybean plant response rating ([11]; Rate 62 g/ha): 0
- Plant response rating, Soybean ([11]; Rate 125 g/ha): 0
- Sugarbeets plant response rating ([12]; Rate 62 g/ha): 0
- Plant response rating, Sugarbeets ([12]; Rate 125 g/ha): 0
- Velvetleaf plant response rating ([13]; Rate 62 g/ha): 0
- Plant response rating, Velvetleaf ([13]; Rate 125 g/ha): 0
- Wheat plant response rating ([14]; Rate 62 g/ha): 0
- Plant response rating, Wheat ([14]; Rate 125 g/ha): 0
- Wild oats plant response rating ([15]; Rate 62 g/ha): 0
- Plant response rating, Wild oats ([15]; Rate 125 g/ha): 0
- Nutsedge plant response rating [16]: 0
- Plant response rating, S. Flatsedge (0 to 10 scale, 0 is no effect, 10 is complete control) [17, 24]: 0
- S. Flatsedge plant response rating (0 to 10 scale, 0 is no effect, 10 is complete control) [17, 25]: 0
- S. Flatsedge plant response rating [17, 26]: 0
- S. Flatsedge plant response rating [17, 27]: 0
- Plant response rating, Ducksalad (0 to 10 scale, 0 is no effect, 10 is complete control) [18, 24]: 0
- Ducksalad plant response rating (0 to 10 scale, 0 is no effect, 10 is complete control) [18, 25]: 0
- Ducksalad plant response rating [18, 26]: 0
- Ducksalad plant response rating [18, 27]: 3
- Plant response rating, Barnyardgrass (0 to 10 scale, 0 is no effect, 10 is complete control) [19, 24]: 0
- Barnyardgrass plant response rating (0 to 10 scale, 0 is no effect, 10 is complete control) [19, 25]: 0
- Barnyardgrass plant response rating [19, 26]: 0
- Barnyardgrass plant response rating [19, 27]: 0

— patent US6737383B1, “Herbicidal oxadiazolidines” (priority 1999, dated 2004)
